In ChEMBL document CHEMBL1201862, “PubChem BioAssay data set” (2004):
Active and inactive are the calls of the source.

What was measured:
[1] = P. falciparum 3D7-ScDHODH growth inhibitors, dose response, SYBR Green, dry powder samples (AID 1159570); format: functional, cell-based;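 note: parasite growth measured after 72 hours of compound exposure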
[2] = HepG2 cell cytotoxicity, dose response, cytotoxicity control, plate reader, dry powder samples (AID 1159569); format: functional, cell-based;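 note: inhibitor potency with signal falling toward the positive control level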
[3] = P. falciparum Dd2 growth inhibitors, dose response, SYBR Green, cherry-picked samples (AID 1159567); format: functional, cell-based
[4] = P. falciparum Dd2 growth inhibitors, dose response, SYBR Green, dry powder samples (AID 1159566); format: functional, cell-based;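 note: potency for growth inhibition with lower SYBR green DNA signal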
[5] = P. falciparum ATP4 D1247Y mutant growth inhibitors, dose response, NITD609-resistant line, SYBR Green, dry powder (AID 1159571); format: functional, cell-based;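 note: parasites synchronized at ring stage by sorbitol before testing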
[6] = microbe, parasite or virus in culture; format: functional; conditions: Mycobacterium tuberculosis
[7] = molecular target: Induced myeloid leukemia cell differentiation protein Mcl-1 (Homo sapiens, UniProt Q07820); format: functional
Sequence of Induced myeloid leukemia cell differentiation protein Mcl-1 (Q07820 whole entry): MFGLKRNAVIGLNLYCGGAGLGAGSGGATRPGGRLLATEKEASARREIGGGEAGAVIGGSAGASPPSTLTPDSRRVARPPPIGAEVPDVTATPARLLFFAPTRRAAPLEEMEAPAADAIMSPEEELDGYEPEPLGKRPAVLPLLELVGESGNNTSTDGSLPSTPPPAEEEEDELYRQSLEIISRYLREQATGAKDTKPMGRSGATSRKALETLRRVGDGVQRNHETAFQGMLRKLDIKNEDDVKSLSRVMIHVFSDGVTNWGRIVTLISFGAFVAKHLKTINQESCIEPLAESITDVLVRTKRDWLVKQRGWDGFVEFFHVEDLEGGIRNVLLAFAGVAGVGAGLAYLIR

Leucine aminopeptidase = molecular target: T1, Leucine aminopeptidase (Plasmodium falciparum 3D7, UniProt Q8IL11); assay: P. falciparum M17LAP inhibitors, primary screen, biochemical, fluorogenic H-Leu-NHMec substrate, 1536-well (AID 1619); format: functional
T1 sequence (Q8IL11 whole entry): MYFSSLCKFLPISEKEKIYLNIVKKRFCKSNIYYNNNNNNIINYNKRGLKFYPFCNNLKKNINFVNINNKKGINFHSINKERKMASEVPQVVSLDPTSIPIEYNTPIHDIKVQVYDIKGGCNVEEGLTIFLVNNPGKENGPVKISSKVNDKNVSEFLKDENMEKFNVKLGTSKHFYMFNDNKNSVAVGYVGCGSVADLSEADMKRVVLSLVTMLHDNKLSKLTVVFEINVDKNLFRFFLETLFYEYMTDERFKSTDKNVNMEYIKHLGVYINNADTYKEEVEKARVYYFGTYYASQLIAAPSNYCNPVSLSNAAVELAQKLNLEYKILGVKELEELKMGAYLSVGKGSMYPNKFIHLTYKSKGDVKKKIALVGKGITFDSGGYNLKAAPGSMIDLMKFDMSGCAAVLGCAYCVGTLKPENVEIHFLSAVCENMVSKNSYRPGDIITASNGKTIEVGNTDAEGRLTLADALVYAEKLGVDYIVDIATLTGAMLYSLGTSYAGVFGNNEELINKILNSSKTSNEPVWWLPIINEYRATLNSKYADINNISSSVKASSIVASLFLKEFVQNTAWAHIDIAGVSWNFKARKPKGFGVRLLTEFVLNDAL

[8] = molecular target: T2, Histone-lysine N-methyltransferase NSD2 (Homo sapiens, UniProt O96028); format: biochemical
T2 sequence (O96028 whole entry): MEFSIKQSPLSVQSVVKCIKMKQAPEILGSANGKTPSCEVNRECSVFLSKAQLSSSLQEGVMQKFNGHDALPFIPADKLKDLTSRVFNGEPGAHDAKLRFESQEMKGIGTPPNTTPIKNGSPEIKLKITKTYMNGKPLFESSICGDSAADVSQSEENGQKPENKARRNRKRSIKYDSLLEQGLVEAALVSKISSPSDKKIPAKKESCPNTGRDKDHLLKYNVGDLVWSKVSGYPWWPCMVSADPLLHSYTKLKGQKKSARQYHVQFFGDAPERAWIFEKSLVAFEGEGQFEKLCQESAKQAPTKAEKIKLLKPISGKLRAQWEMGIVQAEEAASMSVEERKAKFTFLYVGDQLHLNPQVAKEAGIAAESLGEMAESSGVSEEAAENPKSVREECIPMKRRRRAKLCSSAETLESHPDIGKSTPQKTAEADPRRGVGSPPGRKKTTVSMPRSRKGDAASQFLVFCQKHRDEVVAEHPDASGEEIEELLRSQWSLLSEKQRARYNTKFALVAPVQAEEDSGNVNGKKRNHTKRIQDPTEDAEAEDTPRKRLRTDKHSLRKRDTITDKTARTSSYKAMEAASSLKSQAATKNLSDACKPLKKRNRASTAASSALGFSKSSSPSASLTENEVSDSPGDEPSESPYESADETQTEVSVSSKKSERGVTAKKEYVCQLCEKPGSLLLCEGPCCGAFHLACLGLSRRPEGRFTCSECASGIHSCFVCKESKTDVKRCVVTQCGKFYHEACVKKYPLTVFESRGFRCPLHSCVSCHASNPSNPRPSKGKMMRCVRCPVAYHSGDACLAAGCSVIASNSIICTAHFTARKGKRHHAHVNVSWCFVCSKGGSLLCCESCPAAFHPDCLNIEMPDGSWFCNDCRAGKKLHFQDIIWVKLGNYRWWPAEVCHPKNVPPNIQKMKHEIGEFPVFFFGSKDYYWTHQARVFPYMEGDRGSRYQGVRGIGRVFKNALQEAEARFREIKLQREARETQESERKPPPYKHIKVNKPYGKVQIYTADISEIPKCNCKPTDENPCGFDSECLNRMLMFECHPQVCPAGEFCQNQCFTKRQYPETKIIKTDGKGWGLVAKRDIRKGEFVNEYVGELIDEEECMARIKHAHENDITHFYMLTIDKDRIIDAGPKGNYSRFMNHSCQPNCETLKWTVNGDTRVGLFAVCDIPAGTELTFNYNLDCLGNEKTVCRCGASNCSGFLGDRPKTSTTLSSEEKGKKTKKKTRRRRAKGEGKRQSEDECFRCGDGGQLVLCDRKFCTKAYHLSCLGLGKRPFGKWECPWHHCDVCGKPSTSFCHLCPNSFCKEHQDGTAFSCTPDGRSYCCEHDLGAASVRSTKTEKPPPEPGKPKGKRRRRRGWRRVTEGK

cells = format: functional

| SMILES | AC50 [1] | AC50 [2] | AC50 [3] | AC50 [4] | AC50 [5] | other results |
| --- | --- | --- | --- | --- | --- | --- |
| C[C@@H]1CN([C@H](C)CO)C(=O)c2ccccc2-c2ccccc2CO[C@H]1CN(C)C(=O)Nc1cccc(C(F)(F)F)c1 | 1.19 µM (active) | 86.3 µM (active) | 1.45 µM (active) | 1.03 µM (active) | 3.23 µM (active) |  |
| O=C(Nc1ccc(-c2ccccc2)cc1)[C@H]1[C@H](CO)[C@H]2Cn3c(cccc3=O)[C@@H]1N2Cc1ccccc1 | 1.24 µM (active) | 48.4 µM (active) | 1.44 µM (active) | 1.03 µM (active) | 0.921 µM (active) |  |
| O=C1Oc2ccccc2C(=O)/C1=C/c1c[nH]c2ccccc12 |  |  |  |  |  | CC50 [6]: 30.9 µM (active); IC50 [7]: 5.56 µM (active) |
| COc1ccc2c3c(n(C)c2c1)[C@@H](CO)NCC31CCN(Cc2ccc(-c3ccccn3)cc2)CC1 | 0.447 µM (active) | 19.4 µM (active) | 0.696 µM (active) | 0.44 µM (active) | 0.56 µM (active) |  |
| C[C@@H]1CN([C@@H](C)CO)C(=O)c2c(c3ccccc3n2C)-c2ccccc2CO[C@@H]1CN(C)C(=O)c1cc(Cl)cc(Cl)c1 | 2.02 µM (active) | 22.4 µM (active) | 2.11 µM (active) | 1.88 µM (active) | 1.5 µM (active) |  |
| CCN(c1cccc(C)c1)S(=O)(=O)c1ccc2[nH]c(=O)c(=O)[nH]c2c1 |  |  |  |  |  | IC50 (Leucine aminopeptidase): 1.62 µM (active) |
| O=C(CN1C(=O)C2CC=CCC2C1=O)NCC1COc2ccccc2O1 (stereo not given) |  |  |  |  |  | IC50 (Leucine aminopeptidase): 8.66 µM (active) |
| CCN1CCC(CNCc2cn(-c3ccc(OC)cc3)nc2-c2ccccc2Cl)C1 (stereo not given) |  |  |  |  |  | AC50 [8]: > 20 µM (inactive) |
| C=CCc1c(C)nc(SC)nc1Nc1ccc(C(C)=O)cc1 |  |  |  |  |  | CC50 [6]: > 40 µM (active) |
| Cc1cc(O)nc(SCC(=O)Nc2cccc3ccccc23)c1C#N |  |  |  |  |  | IC50 (Leucine aminopeptidase): 2.2 µM (active) |
| CCCN(CCC)CCCNC(=O)c1cn(CC)c2ccc(S(=O)(=O)N3CCc4ccccc4C3)cc2c1=O |  |  |  |  |  | AC50 [8]: > 20 µM (inactive) |
| CCCCN1C(=O)NC(=O)/C(=C/c2ccc[nH]2)C1=O |  |  |  |  |  | CC50 [6]: > 40 µM (active); IC50 (cells): 1.46 µM (active) |
| C[C@@H]1CN([C@@H](C)CO)C(=O)c2c(c3ccccc3n2C)-c2ccccc2CO[C@@H]1CN(C)Cc1ccc(Oc2ccccc2)cc1 | 3.44 µM (active) | 22.8 µM (active) | 1.3 µM (active) | 0.59 µM (active) | 0.906 µM (active) |  |
